We go through eight molecules from US20230295234A1, “ANTIMICROBIAL PEPTIDOMIMETICS” (SPEXIS AG, priority 2020, published 2023).

Bridge positions count the residues as written; N and C are the ends. Square brackets hold non-standard residues; d marks the D form. Peptide text beside a SMILES is read from it. Pro(4R-NH2) = N[C@H]1CN[C@H](C(=O)O)C1; Hyp = O=C(O)[C@@H]1C[C@@H](O)CN1; Gly(N(CH2)3NH2) = NCCCNCC(=O)O; Pen = CC(C)(S)[C@H](N)C(=O)O; dDab = NCC[C@@H](N)C(=O)O; Dab = NCC[C@H](N)C(=O)O; Nlys = NCCCCNCC(=O)O

Data set [1] relates to Escherichia coli ATCC 25922. As to conditions: ATCC 25922. As to the method:
(§1) Lyophilized peptides were weighed on a Microbalance (Mettler MT5) and dissolved in sterile water to a final concentration of 1 mg/mL. Stock solutions were kept at +4° C., light protected.
(§2) Colonies of the microorganisms were diluted in saline (0.85%, NaCl) and adjusted using a McFarland reader (bioMérieux SA, Marcy-l'Etoile, France) to 0.5 McFarland standard. Subsequently, the bacterial suspension was diluted in Mueller-Hinton II (MHII, cation adjusted) broth to give approximately 5×10^5 colony forming units (CFU/mL).
(§3) 10^6 colony forming units (CFU)/mL. Aliquots (90 μl) of inoculate were added to 10 μl of water+P-80 (Polysorbate 80, 0.002% final concentration) containing the peptide in serial two-fold dilutions at 10 fold final concentration. The following microorganisms were used to determine antibiotic selectivity of the peptides: Escherichia coli ATCC 25922, Escherichia coli MCR-1 Af 45 and Klebsiella pneumoniae SSI3010.

Data set [2] relates to Escherichia coli MCR-1 Af 45. To be noted: MCR-1 Af 45. As to the method:
as §1, §2, §3

The test system of data set [3] is Klebsiella pneumoniae SSI3010. As to conditions: SSI3010. As to the method: as §1, §2, §3
Data set [4] deals with human red blood cells (hRBC). The data set can be described thus: Hemolysis of human red blood cells. Format: cell-based. To be noted: red cells of human, 1 h. As to the method:
Lyophilized peptides were weighed on a Microbalance (Mettler MT5) and dissolved in sterile water to a final concentration of 1 mg/mL. Stock solutions were kept at +4° C., light protected. The peptides were tested for their hemolytic activity against human red blood cells (hRBC). Fresh hRBC were washed three times with phosphate buffered saline (PBS) and centrifuged for 5 min at 3000×g. Compounds (200 μg/mL) were incubated with 20% hRBC (v/v) for 1 h at 37° C. and shaking at 300 rpm. […] The samples were centrifuged, the supernatants were 8-fold diluted in PBS buffer and the optical densities (OD) were measured at 540 nm. […] Percent hemolysis was calculated as follows: (OD540peptide/OD540H2O)×100%.

On to `CCCC[C@H](NC(=O)[C@H](CCCNC(=N)N)NC(=O)[C@H](CCN)NC(=O)[C@@H]1CSSC[C@H](NC(=O)[C@H](Cc2ccc(O)cc2)NC(=O)[C@@H](NC(=O)[C@@H](NC(=O)[C@@H]2CCCN2C(=O)[C@@H](NC(=O)[C@H](N)CCCCN)C(C)C)[C@@H](C)CC)[C@@H](C)CC)C(=O)N[C@@H](CC(N)=O)C(=O)N[C@@H](CCCNC(=N)N)C(=O)N[C@@H](CCCNC(=N)N)C(=O)N[C@@H]([C@@H](C)O)C(=O)N[C@H](CCN)C(=O)N[C@@H](CCCCN)C(=O)N1)C(=O)O` [Example 1] (HELM PEPTIDE1{[dK].V.P.I.I.Y.C.N.R.R.T.[NCC[C@@H](N[*:1])C(=O)[*:2]].K.C.[Dab].R.[Nle]}$PEPTIDE1,PEPTIDE1,7:R3-14:R3$$$V2.0), for which the “Escherichia coli ATCC 25922 MIC” value in data set [1] was determined as 0.0625 µg/mL. In data set [2], the “Escherichia coli MCR-1 Af 45 MIC” value was found to be 0.0625 µg/mL. In data set [3], the “Klebsiella pneumoniae SSI3010 MIC” value amounted to 0.125 µg/mL. Moreover, the “Hemolysis at 0.2 g/L” value in data set [4] was determined as 0%.
For the molecule `CCCC[C@H](NC(=O)[C@H](CCCNC(=N)N)NC(=O)[C@H](CCN)NC(=O)[C@@H]1CSSC(C)(C)[C@H](NC(=O)[C@H](Cc2ccc(O)cc2)NC(=O)[C@@H](NC(=O)[C@@H](NC(=O)[C@@H]2CCCN2C(=O)[C@@H](NC(=O)[C@@H]2CCCN2)C(C)C)[C@@H](C)CC)[C@@H](C)CC)C(=O)N[C@@H](CC(N)=O)C(=O)N[C@@H](CCCNC(=N)N)C(=O)N[C@@H](CCN)C(=O)N[C@@H]([C@@H](C)O)C(=O)N[C@H](CCN)C(=O)N[C@@H](CCCCN)C(=O)N1)C(=O)O` [Example 2, Pro-Val-Pro-Ile-Ile-Tyr-Pen-Asn-Arg-Dab-Thr-^DDab-Lys-Cys-Dab-Arg-Nle] (HELM PEPTIDE1{P.V.P.I.I.Y.[Pen].N.R.[Dab].T.[NCC[C@@H](N[*:1])C(=O)[*:2]].K.C.[Dab].R.[Nle]}$PEPTIDE1,PEPTIDE1,7:R3-14:R3$$$V2.0), in data set [1], the “Escherichia coli ATCC 25922 MIC” value came to 0.0625 µg/mL. For the same molecule, the “Escherichia coli MCR-1 Af 45 MIC” value in data set [2] stood at 0.0625 µg/mL. The “Klebsiella pneumoniae SSI3010 MIC” value in data set [3] was determined as 0.25 µg/mL. Besides, the “Hemolysis at 0.2 g/L” value in data set [4] is listed as 0%.
As to `CCCC[C@H](NC(=O)[C@H](CCCNC(=N)N)NC(=O)[C@H](CCC(N)=O)NC(=O)[C@@H]1CSSC(C)(C)[C@H](NC(=O)[C@H](Cc2ccc(O)cc2)NC(=O)[C@@H](NC(=O)[C@@H](NC(=O)[C@@H]2C[C@@H](N)CN2C(=O)[C@@H](NC(=O)[C@@H]2CCCN2)C(C)C)[C@@H](C)CC)[C@@H](C)CC)C(=O)N[C@@H](CC(N)=O)C(=O)N[C@@H](CCCNC(=N)N)C(=O)N[C@@H](CCN)C(=O)N[C@@H]([C@@H](C)O)C(=O)N[C@H](CCN)C(=O)N[C@@H](CCCCN)C(=O)N1)C(=O)O` [Example 3, Pro-Val-Pro((4R)NH2)-Ile-Ile-Tyr-Pen-Asn-Arg-Dab-Thr-^DDab-Lys-Cys-Gln-Arg-Nle] (HELM PEPTIDE1{P.V.[N[C@@H]1C[C@@H](C(=O)[*:2])N([*:1])C1].I.I.Y.[Pen].N.R.[Dab].T.[NCC[C@@H](N[*:1])C(=O)[*:2]].K.C.Q.R.[Nle]}$PEPTIDE1,PEPTIDE1,7:R3-14:R3$$$V2.0), the “Escherichia coli ATCC 25922 MIC” value in data set [1] is 0.125 µg/mL. The “Escherichia coli MCR-1 Af 45 MIC” value in data set [2] stood at 0.25 µg/mL. Further, the “Klebsiella pneumoniae SSI3010 MIC” value in data set [3] was determined as 0.25 µg/mL. For the same molecule, the “Hemolysis at 0.2 g/L” value in data set [4] was 0%.
For `CCCC[C@H](NC(=O)[C@H](CCCNC(=N)N)NC(=O)[C@H](CCN)NC(=O)[C@@H]1CSSC(C)(C)[C@H](NC(=O)[C@H](Cc2ccc(O)cc2)NC(=O)[C@@H](NC(=O)[C@@H](NC(=O)[C@@H]2CCCN2C(=O)[C@@H](NC(=O)[C@@H]2C[C@@H](N)CN2)C(C)C)[C@@H](C)CC)[C@@H](C)CC)C(=O)N[C@@H](CC(N)=O)C(=O)N[C@@H](CCCNC(=N)N)C(=O)N[C@@H](CCN)C(=O)N[C@@H]([C@@H](C)O)C(=O)N[C@H](CCN)C(=O)N[C@@H](CCCCN)C(=O)N1)C(=O)O` [Example 4, Pro((4R)NH2)-Val-Pro-Ile-Ile-Tyr-Pen-Asn-Arg-Dab-Thr-^DDab-Lys-Cys-Dab-Arg-Nle] (HELM PEPTIDE1{[N[C@H]1CN[C@H](C(=O)[*:2])C1].V.P.I.I.Y.[Pen].N.R.[Dab].T.[NCC[C@@H](N[*:1])C(=O)[*:2]].K.C.[Dab].R.[Nle]}$PEPTIDE1,PEPTIDE1,7:R3-14:R3$$$V2.0), the “Escherichia coli ATCC 25922 MIC” value in data set [1] is 0.125 µg/mL. The “Escherichia coli MCR-1 Af 45 MIC” value in data set [2] was found to be 0.125 µg/mL. In addition, the “Klebsiella pneumoniae SSI3010 MIC” value in data set [3] amounted to 0.125 µg/mL. In addition, the “Hemolysis at 0.2 g/L” value in data set [4] came out at 0%.
Regarding `CC[C@H](C)[C@H](NC(=O)[C@@H]1C[C@@H](O)CN1C(=O)[C@@H](NC(=O)[C@@H]1C[C@@H](N)CN1C(=O)CNCCCN)C(C)C)C(=O)N[C@H](C(=O)N[C@@H](Cc1ccc(O)cc1)C(=O)N[C@@H]1C(=O)N[C@@H](CC(N)=O)C(=O)N[C@@H](CCCNC(=N)N)C(=O)N[C@@H](CCN)C(=O)N[C@@H]([C@@H](C)O)C(=O)N[C@H](CCN)C(=O)N[C@@H](CCCCN)C(=O)N[C@H](C(=O)N[C@@H](CCN)C(=O)N[C@@H](CCCNC(=N)N)C(=O)N[C@@H](Cc2ccc(O)cc2)C(=O)O)CSSC1(C)C)[C@@H](C)O` [Example 51, Norn-Pro((4R)NH2)-Val-Hyp-Ile-Thr-Tyr-Pen-Asn-Arg-Dab-Thr-^DDab-Lys-Cys-Dab-Arg-Tyr] (H-[Gly(N(CH2)3NH2)][Pro(4R-NH2)]V[Hyp]ITY[Pen]NR[Dab]T[dDab]KC[Dab]RY-OH; disulfide 8-15), the “Escherichia coli ATCC 25922 MIC” value in data set [1] worked out at 0.0625 µg/mL. Further, in data set [3], the “Klebsiella pneumoniae SSI3010 MIC” value stood at 0.25 µg/mL. The “Hemolysis at 0.2 g/L” value in data set [4] stood at 0%.
For the molecule `CC[C@H](C)[C@H](NC(=O)[C@@H]1C[C@@H](O)CN1C(=O)[C@@H](NC(=O)[C@@H]1C[C@@H](N)CN1C(=O)CNCCCCN)C(C)C)C(=O)N[C@H](C(=O)N[C@@H](Cc1ccc(O)cc1)C(=O)N[C@@H]1C(=O)N[C@@H](CC(N)=O)C(=O)N[C@@H](CCCNC(=N)N)C(=O)N[C@@H](CCN)C(=O)N[C@@H]([C@@H](C)O)C(=O)N[C@H](CCN)C(=O)N[C@@H](CCCCN)C(=O)N[C@H](C(=O)N[C@@H](CCN)C(=O)N[C@@H](CCCNC(=N)N)C(=O)N[C@@H](Cc2ccc(O)cc2)C(=O)O)CSSC1(C)C)[C@@H](C)O` [Example 52, Nlys-Pro((4R)NH2)-Val-Hyp-Ile-Thr-Tyr-Pen-Asn-Arg-Dab-Thr-^DDab-Lys-Cys-Dab-Arg-Tyr] (H-[Nlys][Pro(4R-NH2)]V[Hyp]ITY[Pen]NR[Dab]T[dDab]KC[Dab]RY-OH; disulfide 8-15), the “Escherichia coli ATCC 25922 MIC” value in data set [1] amounted to 0.0625 µg/mL. Further, the “Klebsiella pneumoniae SSI3010 MIC” value in data set [3] turned out to be 0.125 µg/mL. Moreover, the “Hemolysis at 0.2 g/L” value in data set [4] is 0%.
The corresponding values for `CCCC[C@H](NC(=O)[C@H](CCCNC(=N)N)NC(=O)[C@H](CCN)NC(=O)[C@@H]1CSSC[C@H](NC(=O)[C@H](Cc2ccc(O)cc2)NC(=O)[C@@H](NC(=O)[C@@H](NC(=O)[C@@H]2C[C@@H](O)CN2C(=O)[C@@H](NC(=O)[C@@H]2C[C@@H](O)CN2C(=O)[C@H](CCCCN)NC(=O)[C@@H](N)CCCCN)C(C)C)[C@@H](C)CC)[C@@H](C)CC)C(=O)N[C@@H](CC(N)=O)C(=O)N[C@@H](CCCNC(=N)N)C(=O)N[C@@H](CCN)C(=O)N[C@@H]([C@@H](C)O)C(=O)N[C@H](CCN)C(=O)N[C@@H](CCCCN)C(=O)N1)C(=O)O` [Example 78, Lys-Lys-Hyp-Val-Hyp-Ile-Ile-Tyr-Cys-Asn-Arg-Dab-Thr-^DDab-Lys-Cys-Dab-Arg-Nle] (HELM PEPTIDE1{K.K.[Hyp].V.[Hyp].I.I.Y.C.N.R.[Dab].T.[NCC[C@@H](N[*:1])C(=O)[*:2]].K.C.[Dab].R.[Nle]}$PEPTIDE1,PEPTIDE1,9:R3-16:R3$$$V2.0) are 0.125 µg/mL, 0.125 µg/mL and 0%.
In the case of `CC[C@H](C)[C@H](NC(=O)[C@@H]1C[C@@H](O)CN1C(=O)[C@@H](NC(=O)[C@@H]1C[C@@H](N)CN1C(=O)[C@H](CCCCN)NC(=O)[C@@H](N)CCCCN)C(C)C)C(=O)N[C@H](C(=O)N[C@@H](Cc1ccc(O)cc1)C(=O)N[C@@H]1C(=O)N[C@@H](CC(N)=O)C(=O)N[C@@H](CCCNC(=N)N)C(=O)N[C@@H](CCN)C(=O)N[C@@H]([C@@H](C)O)C(=O)N[C@H](CCN)C(=O)N[C@@H](CCCCN)C(=O)N[C@H](C(=O)N[C@@H](CCN)C(=O)N[C@@H](CCCNC(=N)N)C(=O)N[C@@H](Cc2ccc(O)cc2)C(=O)O)CSSC1(C)C)[C@@H](C)O` [Example 127, Lys-Lys-Pro((4R)NH2)-Val-Hyp-Ile-Thr-Tyr-Pen-Asn-Arg-Dab-Thr-^DDab-Lys-Cys-Dab-Arg-Tyr] (HELM PEPTIDE1{K.K.[N[C@@H]1C[C@@H](C(=O)[*:2])N([*:1])C1].V.[Hyp].I.T.Y.[Pen].N.R.[Dab].T.[NCC[C@@H](N[*:1])C(=O)[*:2]].K.C.[Dab].R.Y}$PEPTIDE1,PEPTIDE1,9:R3-16:R3$$$V2.0; N-terminus and C-terminus assumed), the “Escherichia coli ATCC 25922 MIC” value in data set [1] came out at 0.0625 µg/mL. The “Klebsiella pneumoniae SSI3010 MIC” value in data set [3] amounted to 0.0625 µg/mL. Further, in data set [4], the “Hemolysis at 0.2 g/L” value was found to be 0%.
